In PMC9823088, “The oral selective estrogen receptor degrader GDC-0810 (ARN-810) in postmenopausal women with hormone receptor-positive HER2-negative (HR + /HER2 −) advanced/metastatic breast cancer” (Breast Cancer Research and Treatment, 2022):

Experiments:
[1] = system: ER and Ki-67; test: Paired tumor biopsies, ER protein levels and Ki-67; format: in vivo, human; conditions: after one cycle (28 days of treatment); samples from 3 patients only, no conclusions could be drawn
Description: CYP2B6 and CYP2C enzymes. No hormonal therapy, chemotherapy, immunotherapy, or experimental anti-cancer medications were permitted during the study.
(§1) Blood samples were collected for pharmacokinetic assessment on lead-in day −7 and cycle 2 day 1 (C2D1) at predose (0 hour) and postdose (0.5, 1, 1.5, 2, 3, 4, 6, 8, and 24 hours), (plus at 48 hours postdose for day−7). Full plasma pharmacokinetic profiles were obtained for GDC-0810 and its glucuronide metabolites (acyl-glucuronide and N-glucuronide) using a validated liquid chromatography/ tandem mass spectrometry method, and analyzed using non-compartmental methods for all patients in the dose escalation cohorts.
Tumor assessments were performed at screening and every 8 weeks from cycle-1, day-1 (C1D1). Radiographic assessment of objective tumor response or disease progression was based on Response Evaluation Criteria in Solid Tumors (RECIST v1.1). […] Imaging with [18F]-fluoroestradiol positron emission tomography (FES-PET) was performed to quantify ER expression in tumors and to assess for pharmacodynamic response. […]
In phase IIa cohort A1 patients, FES-PET scans were acquired at screening and on C3D3 at 18-24 hours post the C3D2 dose. […] The mean percent change from baseline in SUVmax (corrected for background activity) for up to five index lesions was calculated for each patient; more details are presented in (1). […]

[2] = Study drug exposure (treatment duration); format: in vivo, human; conditions: phase Ia
Description: Patients in all three study phases continued treatment until unacceptable toxicity, disease progression, or consent withdrawal. See Supplementary Methods for other study treatment details.

[3] = system: CYP2C enzymes; parameters: method as in printed; conditions: stated as reason for dose adjustments; ref not given; cited from earlier work
[4] = Plasma pharmacokinetics of GDC-0810 and glucuronide metabolites; format: in vivo, human
Description: (§2) Blood samples were collected for pharmacokinetic assessments. Tumor assessments were performed at screening and every 8 weeks from cycle 1, day 1 (C1D1). Radiographic assessment of objective tumor response or disease progression was based on Response Evaluation Criteria in Solid Tumors (RECIST v1.1). Transvaginal ultrasound scans were performed to monitor endometrial thickness at screening, at every 6 months from C1D1, and at the end of treatment. Imaging with [^18F]-fluoroestradiol positron emission tomography (FES-PET) was performed to quantify ER expression in tumors and to assess for pharmacodynamic response. Further assessment details are provided in Supplementary Methods.
CYP2B6 and CYP2C enzymes. […]
as §1
(§3) Tumor assessments were performed at screening and every 8 weeks from cycle-1, day-1 […]

[5] = Endometrial thickness by transvaginal ultrasound; format: in vivo, human
Description: as §2, with “Methods. […]” for “Methods.”
Tumor assessments were performed at screening and every 8 weeks from cycle-1, day-1 (C1D1). Radiographic assessment of objective tumor response or disease progression was based on Response Evaluation Criteria in Solid Tumors (RECIST v1.1). Transvaginal ultrasound scans were performed to monitor endometrial thickness at screening, at every 6 months from C1D1, and at the end of treatment. […]

[6] = system: ER; test: [18F]-fluoroestradiol PET (FES-PET) pharmacodynamic response; format: in vivo, human
Description: as §2, with “Methods. […]” for “Methods.”
as §3
Imaging with [18F]-fluoroestradiol positron emission tomography
(FES-PET) was performed to quantify ER expression in tumors and to assess for pharmacodynamic response. In phase Ia, FES-PET scans were acquired at screening and on C2D3 at 18-24 hours post the C2D2 dose. Scans were repeated during cycle 3 if the C2D3 scan […]
In phase IIa cohort A1 patients, FES-PET scans were acquired at screening and on C3D3 at 18-24 hours post the C3D2 dose. Scans were repeated at the time of progression if feasible. The mean percent change from baseline in SUVmax (corrected for background activity) for up to five index lesions was calculated for each patient; more details are presented in (1). Optional tumor biopsies were collected at baseline (screening)

CC/C(=C(/c1ccc(/C=C/C(=O)O)cc1)c1ccc2[nH]ncc2c1)c1ccc(F)cc1Cl [GDC-0810]
ER and Ki-67 levels in tumor specimens [1]: reduced ER and Ki-67 levels | patients remaining on study treatment for 2 years [2]: Two | effects on CYP2C enzymes [3]: inhibitory effects | average exposure at steady state (AUC0-24 h), non-fasted compared to fasted ([4]; 600 mg QD): 1.5 fold | average exposure at steady state (Cmax), non-fasted compared to fasted ([4]; 600 mg QD): twofold | drug accumulation ([4]; following multiple dosing): Minimal drug accumulation | half-life ([4]; human, plasma, oral, 600-mg QD, non-fasted condition, read-out: mean terminal half-life (converted)): ~480 min | Tmax ([4]; human, plasma, oral, after dosing, read-out: median Tmax): 1 to 3 h | pharmacokinetic profile ([4]; up to 600 mg): linear and dose proportional | patients with an increase in the thickness of endometrium compared to baseline ([5]; 10 patients in phase Ia with baseline and at least one follow-up scan): 9 (90%) n (%) | change in endometrial thickness, range ([5]; phase Ia): 0 to 11 mm | mean change in endometrial thickness ([5]; phase Ia): 4.4 mm | median change in endometrial thickness ([5]; phase Ia): 3.5 mm | patients with complete or near-complete reduction in FES uptake ([6]; 600 mg QD (fasting and non-fasting)): ≥ 80% | response rates by FES-PET ([6]; 600-mg QD, fasting, and non-fasting, including tumors harboring ESR1 mutations): 80–100% | patients with complete or near complete (> 90%) suppression of FES uptake ([6]; all patients who had FES-PET scans): 78% | FES reduction ([6]; in vivo): > 90% | patients with complete or near complete (> 90%) suppression of FES uptake ([6]; patients with tumors harboring ESR1 mutations): 18 of 26 | patients with complete or near complete (> 90%) suppression of FES uptake ([6]; phase IIa dose expansion, baseline and C3D3 scans): 7 of 10 | patients with a single lesion considered FES-avid (SUVmax corrected > 1.5) ([6]; phase Ia dose escalation, C2D3): two | patients with complete or near complete (> 90%) suppression of FES uptake ([6]; phase Ia, baseline and C2D3 scans): 24 of 30
